A short description of series [1]: Dynamic light scattering of PtGdL solution. It counts as physicochemical. The settings on record: aqueous solution, 25.0° C. As for the experimental part:
Dynamic Light Scattering (DLS) to investigate the presence of aggregates in a PtGdL solution was performed in Mavernm Zetasizer Nano-S equipment, at 25.0° C.

A short description of series [2]: Photo-induced dissociation of the cisplatin unit in tris buffer monitored by emission. The settings on record: tris buffer pH 7.4, UV 365 nm, 5 mW. It counts as physicochemical. As for the experimental part:
One of the key issues is the photodissociation level of the Pt moiety from the compounds described herein. The triplet states of the chromophores before and after photo-release the drug or upon binding with αvβ3 isoform were measured. Based on the synthetic protocols described herein, La (lanthanum) and Gd (gadolinium) analogs can be synthesized to measure the triplet states of the chromophores as well. The measurements of the triplet states of these chromophores phosphorescence and their phosphorescence lifetime was undertaken at low temperature (77K). The photodissociation kinetics of PtEuL were investigated by monitoring the emission spectrum with different irradiation times of UVA/NIR (light dosage=4 J cm^−2). The plot of responsive and initial emission intensity at 615 nm (^5D0→^7F2) vs time will be fitted in the exponential growth and decay equation to obtain the pseudo-first order rate constant.
The linear light induced dissociation of PtGdL in tris buffer (20 mM Tris base, 50 mM NaCl, pH 7.4) was monitored by determination of the emission intensity of solution of PtGdL in tris buffer with different light dosage of 365 nm UV light. In general, 3 mL of the solution of PtGdL (3 μM in tris buffer) in a 3.5 mL quartz cuvette was irradiated with a 365 nm UV lamp (5 mW) with stirring. The emission spectra of the solution were recorded at different time points (0, 1, 3, 5, 7, 10, 15, 20, 30, 45, 60, 75 and 90 min).
(Ln=Eu or Gd). The solution-state electronic adsorption and emission spectra of all the complexes and the ligand were recorded at 298 K (FIGS. 28A-28D). The EuL complex is the product of PtEuL after photo-dissociation and was used to monitor the photo-dissociation of [Pt—(NH3)2Cl]^+ from PtEuL. […] The photo-dissociation of PtEuL (3 μM in Tris-buffer, pH=7.4, 50 mM NaCl) was monitored by the variation of the Eu emission (λem=615 nm, ^5D0→^7F2) with the irradiation time. […] The pseudo-first order rate constant k was determined to be 0.53 min^−1 under these experimental conditions (FIG. 28D).

The test system of another series is WPMY-1 cells. Kind of series: MTT dark cytotoxicity in WPMY-1 cells (PtGdL study). It counts as cell-based, human. The settings on record: 24 hours. As for the experimental part: (§1) Human cervical cancer HeLa cells were grown in Dulbecco's Modified Eagle Medium (DMEM). Human lung diploid fibroblasts-MRC-5 and prostate stromal-WPMY-1 cells were obtained from the cell resource center of Shanghai Institute of Biological Sciences, Chinese Academy of Sciences. MRC-5 and WPMY-1 are growth in MEM (GIBCO 41500034) and supplemented with 10% (v/v) fetal bovine serum, 1% penicillin and streptomycin at 37° C. and 5% CO2. […] After that, formazan was fully dissolved in DMSO through oscillation. Finally, the absorbance of solution was measured with Biotek Power wave xsMicroplate Reader at the wavelength of 570 nm and 690 nm.

Series [3] can be described thus: T1 weighted in vivo 7T MRI imaging and bio-distribution. Further details: species or system BALB/c mice. As for the experimental part:
In vivo 7T MRI measurements of the disclosed compounds in normal mice were conducted. The images were acquired at various time points after solutions of commercial GdDOTA complex (DOTAREM), GdL and PtGdL were injected. […] GdL was immediately captured by the liver, spleen and the kidneys (FIGS. 13A and 14A). […] In comparison to GdDOTA, GdL presents a similar pattern of biodistribution in the kidneys but a slower clearance rate in the liver (0.002 vs 0.016 enh/min). However, PtGdL presents a delayed capture, longer remanence and clearance compared to GdL.
All animal experiments were performed in accordance with the institutional animal protocol guidelines in place at Paris Descartes University, (saisine CEEA34.JS.142.1) and approved by the Institute's Animal Research Committee.
Wild-type female 8 weeks BALB/c mice (Elevage Janvier, Le Genest-St-Isle, France) were anaesthetized with isoflurane (1.5%, with air/O2 0.5/0.25 L·min^−1) inhalation and placed in a dedicated contention cradle. 300 μL of Gadolinium complexes in 0.9% physiological serum were intravenously injected via the tail vein while the mouse was in the scanner. For reproducibility studies, 3 mice per group were injected (n=3).
The scanning protocol was developed using Bruker Paravision 5.1 software. DCE Dynamic contrast Enhanced sequence was recorded using Intragate Flash multislices for motion free artifacts T1 weighted sequence (TR=100 ms, TE=4 ms, alpha=80°). The final images have a spatial resolution of […] in plane. The total scan time was in the order of 3 min 14 s per images. The dynamic follow-up is measured during in a scan time of 40 minutes.
To study the biodistribution of each complex, several regions of interest (ROI) were monitored: the liver, muscle, spleen, kidney, and vessels. The corresponding MRI intensity related to the amount of the Gd complex contrast agents was plotted versus time to visualize the uptake and clearance of each complex into the organs. Comparison with commercial GdDOTA (DOTAREM, Guerbet, France) was also performed at the corresponding concentration of Gd (10 mM).

The test system of series [4] is HeLa cells. Nature of the series: MTT dark cytotoxicity in HeLa cells (PtGdL study). Type of series: cell-based, human. The settings on record: 24 hours. As for the experimental part: as §1
The subject of series [5] is HeLa cells. Kind of series: Two-photon induced activation, in vitro imaging and photo-cytotoxicity of PtGdL. It counts as cell-based, human. As for the experimental part:
The cells were incubated with PtGdL (1, 2, 5, 10 μM) for 12 hours. The complexes (cell impermeable and dissolved in the medium) were washed out with PBS buffer. The cells with complexes were placed in the tissue culture chamber (5% CO2, 37° C.) inside the two-photon confocal microscope. In vitro images were captured by using the Leica SP8 (upright configuration) confocal microscope which equipped with femto-second laser (wavelength: 700 to 1000 nm) and 40×/60× oil immersion objective. […]

The test system of another series is Plasmid DNA. Kind of series: Agarose gel electrophoresis of plasmid DNA after UVA irradiation (PtEuL). It counts as biochemical. Particulars: 20 μM, UVA light dose 50 J m^−2. The text has this: The DNA gel images were obtained using GelRed Nucleic Acid Stain (BIOTIUM).
Direct binding of PtEuL with DNA in dark were studied by circular dichroism (CD). […] The interaction of photo-activated PtEuL with DNA was examined by agarose gel electrophoresis (FIG. 29B). After UVA irradiation with PtEuL, conversion of the supercoiled conformer of the plasmid DNA to its open-circular conformer, which indicates DNA nicking (single strand break) and linear conformer, which indicates double strand break, is clearly seen.

This note sets out measurements from patent US10183027B2, “Lanthanide toolbox for multi-modal, non-invasive tumor specific theranostic prodrugs” (priority 2016, dated 2019).

“And” between values parts separate entries of the source, which are not always exact repeats. Equal entries are not always repeated. Bounds are passed on as bounds.

One may read the IC50 as the concentration at which inhibition is half-maximal. Take `O.O=[N+]([O-])[O-].[Gd+3].[NH3+][Pt-2]([NH3+])([Cl])[n+]1ccc(C(=O)Nc2ccc(C#Cc3ccnc(CN4CCN(CC(=O)[O-])CCN(CC(=O)[O-])CCN(CC(=O)[O-])CC4)c3)cc2)cc1` [PtGdL]: the “PDI (DLS)” value in series [1] is 0.156. Besides, the “size of aggregates in solution (DLS)” value in series [1] (single peak) is 672±24 nm. The “pseudo-first order rate constant k for the dissociation of the cisplatin unit” value in series [2] came out at 0.051 min⁻¹. Further, the IC50 is 43.9 ± 1.1 µM with WPMY-1 cells; ~23.6 µM and ~25 µM in the series on HeLa cells [4]. For the same compound, the “change of signal enhancement” value in series [3] (after 24 hours) is reported as “did not change greatly”. Moreover, in series [3] (mice, i.v. tail vein), the “remanence time in renal cortex” value was 4 to 18 h. In series [3] (mice, liver, spleen, kidneys), the “delay in capture, depending on the tissue of interest” value lay in the range of 6 to 9 min. The “dosage concentration at which dramatic cell death can be observed” value with HeLa cells [5] (730 nm laser excitation for 30 min) is “less than 5 μM”. The “emission and cell death absent exposure to laser irradiation” value with HeLa cells [5] (no laser irradiation) is “no significant emission and/or cell death”.
On to `N.N.[Cl][Pt][Cl]` [cisplatin, reference compound], for which, in the series on Plasmid DNA, the DNA photocleavage activity entry is “less significantly”.
Regarding `O=C([O-])CN1CCN(CC(=O)[O-])CCN(CC(=O)[O-])CCN(CC(=O)[O-])CC1.[Gd+3]` [GdDOTA, reference compound], the “clearance rate in the liver” value in series [3] (mice, i.v. tail vein) came to 0.016 enh/min.
`O.O=C([O-])CN1CCN(CC(=O)[O-])CCN(Cc2cc(C#Cc3ccc(NC(=O)c4ccncc4)cc3)ccn2)CCN(CC(=O)[O-])CC1.[Gd+3]` [GdL]: the IC50 with WPMY-1 cells and in the series on HeLa cells [4] was greater than 200 µM throughout. For the same compound, the “decrease of signal enhancement” value in series [3] (4 hours after injection) stood at 90%. Besides, in series [3] (mice, i.v. tail vein), the “clearance rate in the liver” value amounted to 0.002 enh/min. Moreover, in the series with HeLa cells [5] (with 730 nm laser irradiation), the “cell death, control under the same experimental conditions” value is “no significant cell death”.
